Data: patent US20210324005A1, “Beta-Arrestin Effectors and Compositions and Methods of Use Thereof” (Trevena, Inc., priority 2020, published 2021)

Tests used:
D-Dimer response = assay: Reduction in IAS and FAS D-Dimer response in patients with COVID-19 infection; assay type: in vivo, human; details: COVID-19 patients, infused at 12 mg/hr for up to 7 days
Description: D-Dimer formation is elevated in patients with ARDS and COVID. A study was performed to determine the ability of TRV027 to reduce the effects of D-Dimer formation. […] Each group was monitored for an IAS D-Dimer response (>30% reduction) and a FAS D-Dimer response (>30% reduction). In the control group, 2/8 patients had greater than a 30% reduction in the IAS D-Dimer response and 1/7 patients had greater than a 30% reduction in the FAS D-Dimer response. […] Therefore, the data illustrates the effect of a peptide as provided for herein can have on the reduction in the D-Dimer response. It is anticipated that the reduction in the D-Dimer response as measured by these assays will lead to clinical benefit in patients that are infected and/or hospitalized with COVID-19.

rat AT1aR = target: T1, rat AT1aR (Rattus norvegicus, UniProt P25095); assay: PathHunter β-arrestin-2 recruitment assay, rat AT1aR; assay type: cell-based; details: PathHunter β-arrestin HEK293 cells; inactive = EC50 greater than 10 uM
T1 sequence (P25095 1-359): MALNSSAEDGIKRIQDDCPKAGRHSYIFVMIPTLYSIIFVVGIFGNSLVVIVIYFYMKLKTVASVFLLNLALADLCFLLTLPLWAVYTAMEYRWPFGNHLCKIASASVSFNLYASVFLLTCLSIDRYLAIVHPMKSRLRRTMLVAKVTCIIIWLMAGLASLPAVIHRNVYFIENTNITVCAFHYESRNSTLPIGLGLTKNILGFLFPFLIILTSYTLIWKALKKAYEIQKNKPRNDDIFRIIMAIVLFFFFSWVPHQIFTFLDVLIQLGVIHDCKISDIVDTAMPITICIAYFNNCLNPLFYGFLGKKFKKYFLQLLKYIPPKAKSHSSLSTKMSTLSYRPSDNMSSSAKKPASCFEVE
Description: The proximal event in β-arrestin function mediated by GPCRs is recruitment to receptors following ligand binding and receptor phosphorylation by GRK's. Thus, the measure of β-arrestin recruitment was used to determine ligand efficacy for β-arrestin function.
B-arrestin-2 recruitment to the human and rat angiotensin 2 type 1 receptor (human AT1R and rat AT1aR, respectively) was measured with the PathHunter™ β-arrestin assay (DiscoveRx Corporation, Fremont Calif.). Cells, plasmid(s), and detection reagent(s) were purchased from DiscoveRx, and assays were performed per the manufacturer's instructions. Human AT1R and rat AT1aR were cloned into the pCMV-ProLink vector, verified by sequencing, and transfected into PathHunter β-arrestin HEK293 cells. Stably transfected clonal cell lines were selected with Hygromycin and G418. These clonal cell lines were used for all experiments.
For assays, 25,000 cells were seeded per well in 96-well microplates in volumes of 90 μL and allowed to grow overnight at 37° C. in 5% CO2. Peptides provided herein were dissolved in deionized water to a concentration of 1 mM. […] The microplates were then incubated at room temperature for 60 minutes, and then luminescence was measured using a NOVOstar microplate reader purchased from BMG Labtech. B-arrestin-2 recruitment to receptors was measured as relative luminescence intensity expressed in arbitrary units.

[1] = target: T2, rat angiotensin 2 type 1 receptor (rat, UniProt P25095 1-359); assay: cell-based or functional assay
T2 sequence (looked up): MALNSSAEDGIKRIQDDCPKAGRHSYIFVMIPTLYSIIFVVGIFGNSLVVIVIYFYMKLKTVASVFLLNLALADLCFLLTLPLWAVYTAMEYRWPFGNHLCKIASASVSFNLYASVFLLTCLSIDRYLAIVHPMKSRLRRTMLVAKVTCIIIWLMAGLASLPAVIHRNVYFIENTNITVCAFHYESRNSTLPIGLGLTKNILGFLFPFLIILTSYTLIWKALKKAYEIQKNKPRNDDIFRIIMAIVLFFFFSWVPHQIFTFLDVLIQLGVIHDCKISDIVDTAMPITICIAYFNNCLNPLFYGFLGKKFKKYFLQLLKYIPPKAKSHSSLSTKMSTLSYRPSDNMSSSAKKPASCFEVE

[2] = target: T3, human angiotensin 2 type 1 receptor (human, UniProt P30556 1-359); assay: cell-based or functional assay
T3 sequence (looked up): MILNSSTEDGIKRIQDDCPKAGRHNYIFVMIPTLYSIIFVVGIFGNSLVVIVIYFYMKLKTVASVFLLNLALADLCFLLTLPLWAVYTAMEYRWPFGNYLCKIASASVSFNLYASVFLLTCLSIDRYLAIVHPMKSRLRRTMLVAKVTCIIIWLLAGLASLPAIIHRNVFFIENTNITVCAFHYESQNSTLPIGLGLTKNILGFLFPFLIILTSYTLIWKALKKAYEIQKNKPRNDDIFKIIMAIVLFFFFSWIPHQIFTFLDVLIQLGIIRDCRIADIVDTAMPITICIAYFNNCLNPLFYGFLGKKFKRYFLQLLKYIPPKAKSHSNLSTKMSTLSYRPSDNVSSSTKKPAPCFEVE

Molecule: CC[C@H](C)[C@H](NC(=O)[C@H](Cc1ccc(O)cc1)NC(=O)[C@@H](NC(=O)[C@H](CCCNC(=N)N)NC(=O)CNC)C(C)C)C(=O)N[C@@H](Cc1cnc[nH]1)C(=O)N1CCC[C@H]1C(=O)N[C@H](C)C(=O)O [SEQ ID NO: 27, Sar-Arg-Val-Tyr-Ile-His-Pro-D-Ala-OH]
- patients with greater than 30% reduction in the FAS D-Dimer response (D-Dimer response): 4 out of 9
- patients with greater than 30% reduction in the IAS D-Dimer response (D-Dimer response): 5 out of 11

Molecule: CCCCC(=O)N(Cc1ccc(-c2ccccc2-c2nnn[nH]2)cc1)[C@H](C(=O)O)C(C)C [Valsartan]
- rat AT1aR b-arrestin2 EC50 (M) (rat AT1aR): inactive

B1: SEQ ID NO: 44 (NMAla-Arg-Val-Tyr-Ile-His-Pro-D-Ala-OH) (peptide)
peptide: ARVYIHPA
modifications: NMAla (N-Methyl-L-alanine) at X1; D-Ala at X8
- b-arrestin2 Max (%) [1]: 71.9%
- b-arrestin2 Max (%) [2]: 47.3%
